Source: US10301286B2, “Piperazine derivative” (Astellas Pharma Inc., priority 2015, dated 2019)
Where a name gives a salt, the structure may show the parent alone.

Assays:
human MC1 receptor = human MC1 receptor (Homo sapiens (Human), UniProt Q01726); test: Human MC receptor activation, cAMP production in cells expressing human MC1 receptor; format: cell-based; conditions: FreeStyle 293-F cells transiently expressing human MC1 receptor, α-MSH maximum = 100%
From the text: (§1) (1) Construction of Human MC Receptor-Expressing Vector
(§2) A human MC4 receptor gene (GenBank Accession No.: NM_005912.2), a human MC1 receptor gene (GenBank Accession No.: NM_002386.3), or a human MC3 receptor gene (GenBank Accession No.: NM_019888.3) was introduced into an expression vector pcDNA™ 3.1/V5-His TOPO (registered trademark) (Thermo Fisher Scientific Inc.).
(§3) (2) Construction of Cells Transiently Expressing Human MC Receptor
(§4) An expression vector for a human MC4, MC1, or MC3 receptor was introduced into FreeStyle™ 293-F cell (Thermo Fisher Scientific Inc., product number: R790-07). For the introduction, electroporation was employed. That is, 1×10^7 FreeStyle™ 293-F cell were suspended in 80 μL of an electroporation buffer (Thermo Fisher Scientific Inc., product number: B201-100), and 20 μg of the expression vector was added thereto. The resultant was put into a cuvette (OC-100 Processing Assembly, MaxCyte, Inc.) and electroporated with MaxCyte SIX (registered trademark) (MaxCyte, Inc.). The cells were cultured over one day, suspended in a Cell Banker (registered trademark) 1 (JUJI FIELD Inc.), product number: BLC-1), and stored frozen until their use.
(§5) (3) Measurement of Amount of cAMP Produced
(§6) Measurement was carried out by using a LANCE (registered trademark) Ultra cAMP Kit (PerkinElmer, Inc.) in accordance with the attached instructions. That is, after dissolution in DMSO, the test compound (a final concentration of 1 pM to 30 μM) diluted with an assay buffer (Hank's balanced salt solution, 5 mM 4-(2-hydroxyethyl)-1-piperazineethanesulfonic acid (HEPES), 0.5 mM 3-isobutyl-1-methylxanthine (IBMX), 0.1% bovine serum albumin, pH 7.4), or α-MSH (Bachem Inc., a final concentration of 1 pM to 30 μM) was added to OptiPlate-384 (PerkinElmer, Inc.). Furthermore, a suspension of cells transiently expressing the human MC4, MC1, or MC3 receptor prepared by using the assay buffer was added thereto at 1,000 cells/well, followed by being left to stand at room temperature for about 1 hour. Thereafter, an Eu-cAMP tracer solution and an ULight™-anti-cAMP solution were added thereto, followed by being left to stand at room temperature for about 1 hour. The amount of cAMP was calculated using EnVision (registered trademark) (PerkinElmer Inc.).
(§7) For the agonistic activity, an efficacy (EC50 (μM)) was calculated by a non-linear regression method with a Sigmoid-Emax model, by defining the maximum reaction with α-MSH as 100% and the reaction with the vehicle alone as 0%, respectively.

human MC4 receptor = human MC4 receptor (Homo sapiens (Human), UniProt P32245); test: Human MC receptor activation, cAMP production in cells expressing human MC4 receptor; format: cell-based; conditions: FreeStyle 293-F cells transiently expressing human MC4 receptor, α-MSH maximum = 100%
From the text: as §1, §2, §3, §4, §5, §6, §7

human MC3 receptor = human MC3 receptor (Homo sapiens (Human), UniProt P41968); test: Human MC receptor activation, cAMP production in cells expressing human MC3 receptor; format: cell-based; conditions: FreeStyle 293-F cells transiently expressing human MC3 receptor, α-MSH maximum = 100%
From the text: as §1, §2, §3, §4, §5, §6, §7

Male SD rats = test: Rat erection-inducing action; format: in vivo; conditions: 10 mg/kg intravenously, erections up to one hour after administration, vs vehicle, P<0.05
Method: Male SD rats (Charles River Laboratories Japan, Inc.) were used. A test compound (10 mg/kg) or the vehicle (20% dimethyl acetamide, 10% Cremophor (registered trademark), 70% physiological saline) was administered intravenously through the tail vein. After administration, the rats were transferred to transparent observation cages made of plastic to measure the erection times of up to one hour after administration. The measurements were carried out for five groups (3 to 7 animals per group): vehicle groups, Example compound groups (Ex 87, 88, and 89), and THIQ group, which had been known as an MC4 receptor agonist (J. Med. Chem., 45, 4589-4593 (2002)), as a positive control. For a statistical significance test, Dunnett's multiple comparison test was used for the comparison with vehicle control group, and it was determined whether there was an erection-inducing effect with a statistically significant difference (P<0.05).

Chain of human MC1 receptor (Q01726 whole entry): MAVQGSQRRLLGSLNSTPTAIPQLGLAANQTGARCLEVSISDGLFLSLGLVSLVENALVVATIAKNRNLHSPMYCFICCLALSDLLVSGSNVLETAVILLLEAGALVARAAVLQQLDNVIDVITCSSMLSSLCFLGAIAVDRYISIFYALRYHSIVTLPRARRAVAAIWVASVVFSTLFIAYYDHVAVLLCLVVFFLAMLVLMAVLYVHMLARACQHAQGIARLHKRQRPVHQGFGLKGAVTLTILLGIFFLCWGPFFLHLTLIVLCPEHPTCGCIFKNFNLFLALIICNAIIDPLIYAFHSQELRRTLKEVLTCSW
Chain of human MC4 receptor (P32245 whole entry): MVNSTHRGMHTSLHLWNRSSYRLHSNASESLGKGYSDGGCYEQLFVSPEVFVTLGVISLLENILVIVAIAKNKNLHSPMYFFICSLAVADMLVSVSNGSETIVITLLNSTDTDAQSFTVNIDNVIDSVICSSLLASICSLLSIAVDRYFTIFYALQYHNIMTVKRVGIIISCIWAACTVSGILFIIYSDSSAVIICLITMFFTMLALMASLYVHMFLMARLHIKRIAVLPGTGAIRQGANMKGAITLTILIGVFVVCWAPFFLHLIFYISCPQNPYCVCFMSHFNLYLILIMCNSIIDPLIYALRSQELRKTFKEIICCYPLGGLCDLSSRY
Chain of human MC3 receptor (P41968 whole entry): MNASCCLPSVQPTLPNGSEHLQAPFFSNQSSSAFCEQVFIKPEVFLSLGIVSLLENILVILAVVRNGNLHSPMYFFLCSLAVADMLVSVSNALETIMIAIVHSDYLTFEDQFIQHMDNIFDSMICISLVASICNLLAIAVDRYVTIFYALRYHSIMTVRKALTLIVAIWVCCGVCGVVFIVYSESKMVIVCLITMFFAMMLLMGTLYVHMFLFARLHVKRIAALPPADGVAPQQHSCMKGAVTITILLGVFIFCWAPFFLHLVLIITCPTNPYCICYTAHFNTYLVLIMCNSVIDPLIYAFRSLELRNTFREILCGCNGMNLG

SMILES | EC50 (human MC1 receptor) | EC50 (human MC4 receptor) | EC50 (human MC3 receptor) | erection-inducing effect (Male SD rats)
C[C@H]1CN([C@@H](Cc2ccc3c(c2)CCC3)C(=O)O)CCN1C(=O)C1CN(C(C)(C)C)CC1c1ccc(C#N)cc1F (stereo partly drawn) [Example 47] | > 30 µM | 0.062 µM | 11 µM | –
COc1ccc(C2CN(C(C)(C)C)CC2C(=O)N2CCN([C@@H](Cc3ccc4c(c3)CCC4)C(=O)O)C[C@@H]2C)cc1 (stereo partly drawn) [Example 45] | – | 1.1 µM | – | –
C[C@@H]1CN(C(=O)[C@@H]2CN(C(C)(C)C)C[C@H]2c2ccc(F)cc2F)CCN1C(Cc1ccc(Cl)c(Cl)c1)C(=O)O (stereo partly drawn) [Example 15] | – | 0.49 µM | – | –
C[C@H]1CN([C@@H](Cc2ccc(C3CC3)cc2F)C(=O)O)CCN1C(=O)[C@@H]1CN(C2CCOCC2)C[C@H]1c1ccc(Cl)cc1F [Example 92] | 1.7 µM | 0.012 µM | 1.8 µM | –
Cc1ccc(C[C@@](C)(C(=O)O)N2CCN(C(=O)[C@@H]3CN(C4CCOCC4)C[C@H]3c3ccc(F)cc3F)[C@@H](C)C2)c(F)c1 [Example 74] | 1.4 µM | 0.03 µM | 1 µM | –
COc1ccc(C[C@@H](C(=O)O)N2CCN(C(=O)[C@@H]3CN(C(C)(C)C)C[C@H]3c3ccc(Cl)cc3F)[C@@H](C)C2)c(F)c1 [Example 69] | 0.72 µM | 0.0051 µM | 2.9 µM | –
C[C@H]1CN([C@@H](CC2CCCCC2)C(=O)O)CCN1C(=O)[C@@H]1CN(C(C)(C)C)C[C@H]1c1ccc(Cl)cc1F [Example 57] | 1.9 µM | 0.12 µM | 2.4 µM | –
C[C@H]1CN([C@@H](Cc2ccc3c(c2)CCC3)C(=O)O)CCN1C(=O)C1CN(C(C)(C)C)CC1c1ccc(Cl)s1 (stereo partly drawn) [Example 55] | – | 0.27 µM | – | –
C[C@H]1CN([C@@H](Cc2ccc3c(c2)CCC3)C(=O)O)CCN1C(=O)[C@@H]1CN(c2ccc(C(F)(F)F)nn2)C[C@H]1c1ccc(F)cc1F [Example 33] | – | 0.61 µM | – | –
C[C@H]1CN([C@@H](Cc2ccc3c(c2)CCC3)C(=O)O)CCN1C(=O)[C@@H]1CN(C2(C)CC2)C[C@H]1c1ccc(Cl)cc1F [Example 68] | – | 0.53 µM | – | –
C[C@@H]1CN([C@@H](Cc2ccc3ccccc3c2)C(=O)O)C[C@H](C)N1C(=O)[C@@H]1CN(C(C)(C)C)C[C@H]1c1ccc(F)cc1F [Example 6, (2S)-2-[(3R,5S)-4-{[(3S,4R)-1-tert-butyl-4-(2,4-difluorophenyl)pyrrolidin-3-yl]carbonyl}-3,5-dimethylpiperazin-1-yl]-3-(2-naphthyl)propanoic acid dihydrochloride] | 6.4 µM | 0.48 µM | > 30 µM | –
O=C(N[C@H](Cc1ccc(Cl)cc1)C(=O)N1CCC(Cn2cncn2)(C2CCCCC2)CC1)[C@H]1Cc2ccccc2CN1 [THIQ, reference compound] | – | – | – | exhibited a significant erection-inducing effect
CN(C)CC[C@H]1CN([C@@H](Cc2ccc3ccccc3c2)C(=O)O)CCN1C(=O)[C@@H]1CN(c2ccc(=O)n(C)n2)C[C@H]1c1ccc(F)cc1F [Example 24] | 15 µM | 0.0032 µM | 0.58 µM | –
CC(C)(C)N1C[C@@H](C(=O)N2CCN([C@@H](Cc3ccc4c(c3)CCC4)C(=O)O)C[C@@H]2CC2CC2)[C@H](c2ccc(F)cc2F)C1 [Example 36] | – | 0.0019 µM | – | –
Cc1ccc([C@H](C)[C@@H](C(=O)O)N2CCN(C(=O)[C@@H]3CN(C4CCOCC4)C[C@H]3c3ccc(Cl)cc3F)[C@@H](C)C2)cc1 [Example 78] | 1 µM | 0.016 µM | 0.68 µM | –
C[C@H]1CN([C@@H](Cc2ccc(C(F)(F)F)cc2)C(=O)O)CCN1C(=O)[C@@H]1CN(C(C)(C)C)C[C@H]1c1ccc(F)cc1F [Example 13] | – | 0.048 µM | 5 µM | –
C[C@H]1CN([C@@H](Cc2ccc3c(c2)CCC3)C(=O)O)CCN1C(=O)[C@@H]1CN(C(C)(C)CO)C[C@H]1c1ccc(F)cc1F [Example 28] | 3.9 µM | 0.15 µM | 10 µM | –
COC[C@H]1CN([C@@H](Cc2ccc3c(c2)CCC3)C(=O)O)CCN1C(=O)[C@@H]1CN(c2ccc(F)cc2)C[C@H]1c1ccc(F)cc1F [Example 27] | – | 1 µM | – | –
CC[C@H]1CN([C@@H](Cc2ccc3ccccc3c2)C(=O)O)CCN1C(=O)[C@@H]1CN(C(C)=O)C[C@H]1c1ccc(F)cc1F [Example 50] | – | 0.064 µM | – | –
C[C@H]1CN([C@@H](Cc2ccc(C#N)cc2)C(=O)O)CCN1C(=O)[C@@H]1CN(C(C)(C)C)C[C@H]1c1ccc(F)cc1F [Example 21] | – | 1.7 µM | – | –
C[C@H]1CN([C@@H](Cc2ccc3c(c2)CCC3)C(=O)O)CCN1C(=O)C1CN(C(C)(C)C)CC1c1ccc2c(c1)CCC2 (stereo partly drawn) [Example 83] | – | 0.19 µM | – | –
C[C@@H]1CN(C(=O)[C@@H]2CN(C(C)(C)C)C[C@H]2c2ccc(F)cc2F)CCN1C(Cc1ccc(Cl)c(Cl)c1)C(=O)O (stereo partly drawn) [Example 16] | – | 4.9 µM | – | –
C[C@H]1CN([C@@H](Cc2c[nH]c3ccccc23)C(=O)O)CCN1C(=O)[C@@H]1CN(C(C)(C)C)C[C@H]1c1ccc(F)cc1F [Example 53] | – | 0.19 µM | – | –
Cc1ccc(C[C@@H](C(=O)O)N2CCN(C(=O)C3CN(C4(C)CCOCC4)CC3c3ccc(F)cc3F)[C@@H](C)C2)c(F)c1 (stereo partly drawn) [Example 84] | – | 0.018 µM | – | –
CC(C)(C)N1C[C@@H](C(=O)N2CCN([C@@H](Cc3ccc4ccccc4c3)C(=O)O)CC23CC3)[C@H](c2ccc(F)cc2F)C1 [Example 17] | – | 2.4 µM | – | –
C[C@H]1CN([C@@H](Cc2ccc3c(c2)CCC3)C(=O)O)CCN1C(=O)[C@@H]1CN(C(=O)C2CC2)C[C@H]1c1ccc(F)cc1F [Example 35] | – | 0.14 µM | – | –
C[C@H]1CN([C@@H](Cc2ccc(OC(F)F)cc2)C(=O)O)CCN1C(=O)[C@@H]1CN(C(C)(C)C)C[C@H]1c1ccc(Cl)cc1F [Example 72] | 2.1 µM | 0.04 µM | 5.3 µM | –
